system: IL-1β production in PMA-differentiated THP-1 cells; experiment: IL-1β production in PMA-differentiated THP-1 cells stimulated with gramicidin (hTHP-1 assay, 2% fetal bovine serum; Procedures 1-3); type: cell-based, human; details: Homo sapiens, THP-1, hTHP-1 assay containing 2% fetal bovine serum; class symbols; read-out: hTHP-1 IC50 (Average IC50 of compounds in hTHP-1 assay)
How it was run: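 Readout is HTRF of IL-1β in cell-free supernatant after 2 h gramicidin (5 μM) challenge. Cells: THP-1 differentiated with PMA 20 ng/ml for 16-18 h, plated 50,000/well in 2% FBS RPMI, exposed to compound 1 h beforehand at final 100–0.0017 μM, DMSO 0.37%.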

| IC50 [nM] | Structure (SMILES) |
| --- | --- |
| 40 to 200 | CC(C)(O)c1ccc(S(N)(=O)=NC(=O)Nc2c3c(cc4c2CCC4)CCC3)c(F)c1 (stereo not shown) [Example 13, 2-fluoro-N′-(1,2,3,5,6,7-hexahydro-s-indacen-4-ylcarbamoyl)-4-(2-hydroxypropan-2-yl)benzenesulfonimidamide] |
| 8 to 40 | CC(C)(O)c1csc(S(N)(=O)=NC(=O)Nc2c3c(c(Cl)c4c2CCC4)CCC3)c1 (stereo not shown) [Example 14, N′-(8-chloro-1,2,3,5,6,7-hexahydro-s-indacen-4-ylcarbamoyl)-4-(2-hydroxypropan-2-yl)thiophene-2-sulfonimidamide] |
| 40 to 200 | CC(C)c1cc(C#N)c(F)c(C(C)C)c1NC(=O)N=S(N)(=O)c1cnc(C(C)(C)O)s1 (stereo not shown) [Example 15, N′-(4-cyano-3-fluoro-2,6-diisopropylphenylcarbamoyl)-2-(2-hydroxypropan-2-yl)thiazole-5-sulfonimidamide] |
| 40 to 200 | CC(C)c1cc(F)cc(C(C)C)c1NC(=O)N=S(N)(=O)c1cnc(C(C)(C)O)s1 (stereo not shown) [Example 21, N′-(4-fluoro-2,6-diisopropylphenylcarbamoyl)-2-(2-hydroxypropan-2-yl)thiazole-5-sulfonimidamide] |
| 40 to 200 | CN(C)Cc1ccc(S(N)(=O)=NC(=O)Nc2c3c(cc4c2CCC4)CCC3)cc1 (stereo not shown) [Example 28, 4-((dimethylamino)methyl)-N′-(1,2,3,5,6,7-hexahydro-s-indacen-4-ylcarbamoyl)benzenesulfonimidamide] |
| 8 to 40 | CC(C)(O)c1cc(F)c(S(N)(=O)=NC(=O)Nc2c3c(c(F)c4c2CCC4)CCC3)s1 (stereo not shown) [Example 30, 3-fluoro-N′-(8-fluoro-1,2,3,5,6,7-hexahydro-s-indacen-4-ylcarbamoyl)-5-(2-hydroxypropan-2-yl)thiophene-2-sulfonimidamide] |
| 40 to 200 | CC(C)c1cc(OC(F)F)cc(C(C)C)c1NC(=O)N=S(N)(=O)c1ncc(C(C)(C)O)s1 (stereo not shown) [Example 38, N′-(4-(difluoromethoxy)-2,6-diisopropylphenylcarbamoyl)-5-(2-hydroxypropan-2-yl)thiazole-2-sulfonimidamide] |
| 40 to 200 | CC(C)(O)c1ccc(S(N)(=O)=NC(=O)Nc2c3c(c(Cl)c4c2CCC4)CCC3)c(F)c1 (stereo not shown) [Example 41] |
| < 8 | Cc1oc(S(N)(=O)=NC(=O)Nc2c3c(c(F)c4c2CCC4)CCC3)cc1C(C)(C)O (stereo not shown) [Example 45, N′-(8-fluoro-1,2,3,5,6,7-hexahydro-s-indacen-4-ylcarbamoyl)-4-(2-hydroxypropan-2-yl)-5-methylfuran-2-sulfonimidamide] |
| 40 to 200 | CN(C)Cc1ccc(S(N)(=O)=NC(=O)Nc2c3c(cc4c2CCC4)CCC3)c(F)c1 (stereo not shown) [Example 48, 4-((dimethylamino)methyl)-2-fluoro-N′-(1,2,3,5,6,7-hexahydro-s-indacen-4-ylcarbamoyl)benzene-sulfonimidamide] |
| 200 to 1000 | CC(C)c1cc(F)cc(C(C)C)c1NC(=O)N=S(N)(=O)c1ccc(C(C)(C)O)s1 (stereo not shown) [Example 49, N′-(4-fluoro-2,6-diisopropylphenylcarbamoyl)-5-(2-hydroxypropan-2-yl)thiophene-2-sulfonimidamide] |
| 1000 to 5000 | CC(C)(O)c1ccc(S(N)(=O)=NC(=O)Nc2c3c(c(F)c4c2CCC4)CCC3)c(Cl)c1 (stereo not shown) [Example 50, 2-chloro-N′-(8-fluoro-1,2,3,5,6,7-hexahydro-s-indacen-4-ylcarbamoyl)-4-(2-hydroxypropan-2-yl)benzenesulfonimidamide] |
| 200 to 1000 | Cc1cc(S(N)(=O)=NC(=O)Nc2c3c(cc4c2CCC4)CCC3)ccc1C(C)(C)O (stereo not shown) [Example 52, N′-((1,2,3,5,6,7-hexahydro-s-indacen-4-yl)carbamoyl)-4-(2-hydroxypropan-2-yl)-3-methylbenzenesulfonimidamide] |
| 8 to 40 | Cc1nc(C(C)(C)O)sc1S(N)(=O)=NC(=O)Nc1c2c(cc3c1CCC3)CCC2 (stereo not shown) [Example 53, N′-((1,2,3,5,6,7-hexahydro-s-indacen-4-yl)carbamoyl)-2-(2-hydroxypropan-2-yl)-4-methylthiazole-5-sulfonimidamide] |
| 200 to 1000 | CC(C)(O)c1cc(F)cc(S(N)(=O)=NC(=O)Nc2c3c(c(F)c4c2CCC4)CCC3)c1 (stereo not shown) [Example 56, 3-fluoro-N′-((8-fluoro-1,2,3,5,6,7-hexahydro-s-indacen-4-yl)carbamoyl)-5-(2-hydroxypropan-2-yl)benzenesulfonimidamide] |
| 200 to 1000 | Cc1cc(S(N)(=O)=NC(=O)Nc2c(C(C)C)cc(OC(F)F)cc2C(C)C)sc1C(C)(C)O (stereo not shown) [Example 57, N′-((4-(difluoromethoxy)-2,6-diisopropylphenyl)carbamoyl)-5-(2-hydroxypropan-2-yl)-4-methylthiophene-2-sulfonimidamide] |
| 1000 to 5000 | CC(C)(O)c1cc(S(N)(=O)=NC(=O)Nc2c3c(c(F)c4c2CCC4)CCC3)ccc1F (stereo not shown) [Example 58, 4-fluoro-N′-((8-fluoro-1,2,3,5,6,7-hexahydro-s-indacen-4-yl)carbamoyl)-3-(2-hydroxypropan-2-yl)benzenesulfonimidamide] |
| 8 to 40 | Cc1nc(C(C)(C)O)sc1S(N)(=O)=NC(=O)Nc1c2c(c(F)c3c1CCC3)CCC2 (stereo not shown) [Example 59, N′-((8-fluoro-1,2,3,5,6,7-hexahydro-s-indacen-4-yl)carbamoyl)-2-(2-hydroxypropan-2-yl)-4-methylthiazole-5-sulfonimidamide] |
| 1000 to 5000 | CC(C)(O)c1ccc(S(N)(=O)=NC(=O)Nc2c3c(cc4c2CCC4)CCC3)cc1F (stereo not shown) [Example 60, 3-fluoro-N′-((1,2,3,5,6,7-hexahydro-s-indacen-4-yl)carbamoyl)-4-(2-hydroxypropan-2-yl)benzenesulfonimidamide] |
| 8 to 40 | CC(C)(O)c1csc(S(N)(=O)=NC(=O)Nc2c3c(c(F)c4c2CCC4)CCC3)n1 (stereo not shown) [Example 61, N′-((8-fluoro-1,2,3,5,6,7-hexahydro-s-indacen-4-yl)carbamoyl)-4-(2-hydroxypropan-2-yl)thiazole-2-sulfonimidamide] |
| 40 to 200 | CC(C)c1ccc(F)c(C(C)C)c1NC(=O)N=S(N)(=O)c1cnc(C(C)(C)O)s1 (stereo not shown) [Example 62, N′-((3-fluoro-2,6-diisopropylphenyl)carbamoyl)-2-(2-hydroxypropan-2-yl)thiazole-5-sulfonimidamide] |
| 200 to 1000 | CC(C)c1cc(C#N)cc(C(C)C)c1NC(=O)N=S(N)(=O)c1cc(C#N)cc(C(C)(C)O)c1 (stereo not shown) [Example 67, 3-cyano-N′-((4-cyano-2,6-diisopropylphenyl)carbamoyl)-5-(2-hydroxypropan-2-yl)benzenesulfonimidamide] |
| 1000 to 5000 | CC(C)c1cc(C#N)c(F)c(C(C)C)c1NC(=O)NS(=N)(=O)c1sc(C(C)(C)O)nc1CO (stereo not shown) [Example 71, N-((4-cyano-3-fluoro-2,6-diisopropylphenyl)carbamoyl)-4-(hydroxymethyl)-2-(2-hydroxypropan-2-yl)thiazole-5-sulfonimidamide] |
| 8 to 40 | CC(C)(O)c1ncc(S(N)(=O)=NC(=O)Nc2c3c(cc4c2CC4)CCC3)s1 (stereo not shown) [Example 223, 2-(2-Hydroxypropan-2-yl)-N′-((2,4,5,6-tetrahydro-1H-cyclobuta[f]inden-3-yl)carbamoyl)thiazole-5-sulfonimidamide] |
| 5000 to 30000 | CNS(=O)(=NC(=O)Nc1c2c(cc3c1CCC3)CCC2)c1cnc(C(C)(C)O)s1 (stereo not shown) [Example 247, N′-((1,2,3,5,6,7-hexahydro-s-indacen-4-yl)carbamoyl)-2-(2-hydroxypropan-2-yl)-N-methylthiazole-5-sulfonimidamide] |
| 5000 to 30000 | CN(C(=O)N=S(N)(=O)c1cnc(C(C)(C)O)s1)c1c2c(cc3c1CCC3)CCC2 (stereo not shown) [Example 248, N′-((1,2,3,5,6,7-hexahydro-s-indacen-4-yl)(methyl)carbamoyl)-2-(2-hydroxypropan-2-yl)thiazole-5-sulfonimidamide] |
| 40 to 200 | CC(C)(O)c1cnc(S(N)(=O)=NC(=O)Nc2c3c(cc4c2OCC4)CCC3)s1 (stereo not shown) [Example 258, 5-(2-Hydroxypropan-2-yl)-N′-((3,5,6,7-tetrahydro-2H-indeno[5,6-b]furan-8-yl)carbamoyl)thiazole-2-sulfonimidamide] |
| 8 to 40 | CC(C)(O)c1csc(S(N)(=O)=NC(=O)Nc2c3c(cc4c2OCC4)CCC3)n1 (stereo not shown) [Example 263, 4-(2-Hydroxypropan-2-yl)-N′-((3,5,6,7-tetrahydro-2H-indeno[5,6-b]furan-8-yl)carbamoyl)thiazole-2-sulfonimidamide] |

same assay, conditions: hTHP-1 assay containing 2% fetal bovine serum; class symbols; read-out: hTHP-1 IC50 (Average IC50 of compounds in hTHP-1 assay)

| IC50 [nM] | Structure (SMILES) |
| --- | --- |
| 200 to 1000 | CC(C)c1cc(C#N)c(F)c(C(C)C)c1NC(=O)N=S(N)(=O)c1cnc(C(C)(O)CO)s1 (stereo not shown) [Example 72, N′-((4-cyano-3-fluoro-2,6-diisopropylphenyl)carbamoyl)-2-(1,2-dihydroxypropan-2-yl)thiazole-5-sulfonimidamide] |
| 40 to 200 | Cc1oc(S(N)(=O)=NC(=O)Nc2c3c(cc4c2C(C)CC4)CCC3)cc1C(C)(C)O [Example 127, Two isomers of (R,S)-and (R,R)-or (S,S)-and (S,R) 4-(2-hydroxypropan-2-yl)-5-methyl-N′-((3-methyl-1,2,3,5,6,7-hexahydro-s-indacen-4-yl)carbamoyl)furan-2-sulfonimidamide] |

| Structure (SMILES) | IC50 [nM] |
| --- | --- |
| CC(C)(O)c1ncc([S@](N)(=O)=NC(=O)Nc2c3c(cc4c2CCC4)CCC3)s1 [Example 6] | […] |

Reference: patent publication US11724992B2 (Novartis AG, priority 2017, dated 2023)
